Measured values taken from patent US20010001101A1, “Phenanthroline derivatives” (Zeneca Limited, priority 1997, published 2001).

Legend:
[1] = system: granulation tissue in wound chamber; test: in vivo wound chamber model; parameters: species or system rat; details: injected into chamber daily, day 7-14 treatment; for response vs control in vivo at 0.01 mg / response vs control in vivo at 0.05 mg: Rattus norvegicus, read-out: Mean Collagen content (% of Control) On Day 14
Procedure: (e) An in vivo wound chamber model involving the measurement of histological changes in granulation tissue. The test compounds were tested in rats according to the procedures generally described in Schilling et al., Surgery 46(4):702-710 (1959), Hunt et al., Am. J. Surgery 114:302-307 (1967), and Grotendorst et al., J. Clin Inves. 76:2323-2329 (1985). More specifically, stainless wire mesh cylinders were implanted subcutaneously under the back skin of rats (two chambers per animal). The compounds of the present invention were then dissolved in DMSO and injected into each chamber on a daily basis at various concentrations from either day 0-14 or day 7-14. On day 14, the chambers were collected and the granulation tissues contained within the chambers were collected for biochemical (collagen content) or histological evaluation.
Following the in vivo wound chamber model described above, fourteen of the claimed compounds tested to determine the effectiveness of the claimed compounds in inhibiting collagen deposition in the wound chamber.

dermal punch wound = test: dermal wound healing, rat punch model; type: in vivo; details: compared to control
Procedure: FIG. 5 illustrates wound area after treatment of Compound 3 in the dermal punch model.
(§1) The effectiveness of the compounds in dermal wound healing was tested using two wound healing models—rat punch model and rat incisional model—as described above.

dermal incisional wound = test: dermal wound healing, rat incisional model; type: in vivo; details: compared to control
Procedure: FIG. 6 illustrates the tensile strength on dermal incisional wound on day 7 after oral treatment of Compound 3 and Compound 12.
FIG. 7 illustrates the tensile strength of incisional wound after local injections of Compound 12.
as §1

melting point [°C]	SMILES	response vs control in vivo at 0.01 mg ([1]; 10 μg dosage) [%]	response vs control in vivo at 0.05 mg ([1]; 50 μg dosage) [%]	other results
	N#CC1C=Nc2c(ccc3cccnc23)C1=O (centres unmarked) [Compound 1, 3-cyano-4-oxo-3,4-dihydro-1,10-phenanthroline]	110	112	
171 to 182	O=C(O)C1C=Nc2c(ccc3cc(C(=O)N4CCc5ccccc5C4)cnc23)C1=O (centres unmarked) [Example XIV, 3-carboxy-4-oxo-8-(1,2,3,4-tetrahydroisoquinolin-2-ylcarbonyl)-3,4-dihydro-1,10-phenanthroline]			
294 to 296	CN(Cc1ccc(F)cc1)C(=O)c1cnc2c3c(ccc2c1)C(=O)C([N+](=O)[O-])C=N3 (centres unmarked) [Example VII, 8-[N-(4-fluorobenzyl)-N-methylcarbamoyl]-3-nitro-4-oxo-3,4-dihydro-1,10-phenanthroline]			
	CCCN(CC)C(=O)c1cnc2c3c(ccc2c1)C(=O)C([N+](=O)[O-])C=N3 (centres unmarked) [Compound 6, 3-nitro-8-(N-ethyl-N-propylcarbamoyl)-4-oxo-3,4-dihydro-1,10-phenanthroline]	58.8	51.1	
	O=C(O)C1C=Nc2c(c(Cl)cc3cccnc23)C1=O (centres unmarked) [Compound 2, 5-chloro-3-carboxy-4-oxo-3,4-dihydro-1,10-phenanthroline]	91.7	82.7	
169 to 170	CCOC(=O)C1C=Nc2c(ccc3c(N(C)C)c(C(=O)N(C)Cc4ccccc4)cnc23)C1=O (centres unmarked) [Example XV, 8-(N-benzyl-N-methylcarbamoyl)-7-dimethylamino-3-ethoxy-carbonyl-4-oxo-3,4-dihydro-1,10-phenanthroline]			
288 to 290	CCOC(=O)c1cnc2c3c(ccc2c1Cl)C(=O)C(C(C)=O)C=N3 (centres unmarked) [Example X, 3-acetyl-7-chloro-8-ethoxycarbonyl-4-oxo-3,4-dihydro-1,10-phenanthroline]			
	O=C1c2ccc3cc(C(=O)N4CCN(Cc5ccccc5)CC4)cnc3c2N=CC1[N+](=O)[O-] (centres unmarked) [Compound 10, 3-nitro-8-(4-benzylpiperazine-ylcarbonyl)-4-oxo-3,4-dihydro-1,10-phenanthroline]			Mean Collagen content (% of Control) On Day 14 ([1]; 10 μg dosage): 94.81 % of Control; Mean Collagen content (% of Control) On Day 14 ([1]; 50 μg dosage): 76.54 % of Control
	CN(Cc1ccc(F)cc1F)C(=O)c1cnc2c3c(ccc2c1)C(=O)C(C(=O)O)C=N3 (centres unmarked) [Compound 3, 3-carboxy-8-(N-methyl-N-{2,4-difluorobenzyl}carbamoyl)-4-oxo-3,4-dihydro-1,10-phenanthroline]	108	79.8	
	CCOC(=O)C1C=Nc2c(c(OC)cc3cccnc23)C1=O (centres unmarked) [Compound 14, 3-ethoxycarbonyl-4-oxo-5-methoxy-3,4-dihydro-1,10-phenanthroline]	72.2	70.3	healing time (dermal punch wound): increased healing time; tensile strength of wound (dermal incisional wound): reduced tensil strength
	O=C(O)C1C=Nc2c(cc(Cl)c3cccnc23)C1=O (centres unmarked) [Compound 9, 3-carboxy-6-chloro-4-oxo-3,4-dihydro-1,10-phenanthroline]	80.3	79.9	
	O=C1c2ccc3cccnc3c2N=CC1S(=O)(=O)C(F)(F)F (centres unmarked) [Compound 11, 3-trifluoromethylsulfonyl-4-oxo-3,4-dihydro-1,10-phenanthroline]	90.8	80.8	
267 to 269	CN(Cc1ccccc1)C(=O)c1cnc2c3c(c(F)cc2c1)C(=O)C(C#N)C=N3 (centres unmarked) [Example IX, 8-(N-benzyl-N-methylcarbamoyl)-3-cyano-5-fluoro-4-oxo-3,4-dihydro-1,10-phenanthroline]			
	O=C(OCCN1CCOCC1)C1C=Nc2c(ccc3cccnc23)C1=O (centres unmarked) [Compound 13, 3-(2-{morpholino}ethoxycarbonyl)-4-oxo-3,4-dihydro-1,10-phenanthroline]	95.5	84.3	
	Cc1cc2cc(C(=O)N(C)Cc3ccccc3)cnc2c2c1C(=O)C(C(=O)O)C=N2 (centres unmarked) [Compound 5, 3-carboxy-8-(N-benzyl-N-methylcarbamoyl)-5-methyl-4-oxo-3,4-dihydro-1,10-phenanthroline]	99.1	80.9	
	O=C(O)C1C=Nc2c(ccc3cc(O)cnc23)C1=O (centres unmarked) [Compound 7, 3-carboxy-8-hydroxy-4-oxo-3,4-dihydro-1,10-phenanthroline]	81.9	74.5	
164 to 165	COCCOCCOC(=O)C1C=Nc2c(ccc3cccnc23)C1=O (centres unmarked) [Compound 8, 3-[2-(2-methoxyethoxy)ethoxycarbonyl]-4-oxo-3,4-dihydro-1,10-phenanthroline]	114	92.5	
272 to 274	O=C1c2ccc3cccnc3c2N=CC1S(=O)(=O)CC(F)(F)F (centres unmarked) [Example VI, 3-(2,2,2-trifluoroethyl-sulfonyl)-4-oxo-3,4-dihydro-1,10-phenanthroline]			
	CN(Cc1ccccc1)C(=O)c1cnc2c3c(ccc2c1)C(=O)C(C#N)C=N3 (centres unmarked) [Compound 4, 3-cyano-8-(N-benzyl-N-methylcarbamoyl)-4-oxo-3,4-dihydro-1,10-phenanthroline]	81.1	66	
